Measurements published in patent US20150056186A1, “COMBINATION THERAPY OF A TYPE II ANTI-CD20 ANTIBODY WITH AN ANTI-BCL-2 ACTIVE AGENT” (Hoffmann-La Roche Inc., priority 2007, published 2015).

Legend:
[1] = target: T1, CD20 on Raji cells (ATCC-No. CCL-86) (Homo sapiens, UniProt P11836); assay: Ratio of the binding capacities to CD20 on Raji cells compared to rituximab (direct immunofluorescence, Cy5, FACSArray); details: Cy5-conjugated antibodies, MFI at EC50, corrected for Cy5-labeling ratio
T1 construct: generated by direct immunofluorescence using the Burkitt's lymphoma cell line Raji (ATCC-No. CCL-86); host or cells: Raji cells
T1 sequence (P11836 1-297): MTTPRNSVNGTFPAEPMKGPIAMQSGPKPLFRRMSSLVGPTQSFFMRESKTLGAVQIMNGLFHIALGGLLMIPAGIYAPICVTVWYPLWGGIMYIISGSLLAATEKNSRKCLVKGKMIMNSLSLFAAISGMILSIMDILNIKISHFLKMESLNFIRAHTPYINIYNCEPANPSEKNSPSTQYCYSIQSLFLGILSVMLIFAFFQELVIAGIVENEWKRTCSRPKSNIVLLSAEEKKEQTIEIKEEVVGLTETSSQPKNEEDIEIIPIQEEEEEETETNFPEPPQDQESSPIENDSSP
Protocol: MFI is the mean fluorescent intensity. The “Cy5-labeling ratio” as used herein means the number of Cy5-label molecules per molecule antibody.
Raji cells (ATCC-No. CCL-86) were maintained in culture in RPMI-1640 medium (PanBiotech GmbH, Cat.-No. PO4-18500) containing 10% FCS (Gibco, Cat.-No. 10500-064). […] 5*10^5 cells per sample were stained for 30 min at 4° C. Afterwards, cells were washed in culture medium. Propidium iodide (PI) staining was used to exclude dead cells.
Then the ratio of the binding capacities to CD20 on Raji cells (ATCC-No. CCL-86) is calculated according to the following formula: […]

[2] = tested on: Z138 human B-Cell Non-Hodgkin-lymphoma (NHL) cells; assay: Tumor growth inhibition study in vivo, Z138 MCL xenografts in SCID beige mice; details: 10 mg/kg i.v. q7d
From the text: Z138 human B-Cell Non-Hodgkin-lymphoma (NHL) cells were originally obtained from Glycart (Mantle cell lymphoma-MCL). […] Passage 2 was used for transplantation.
Animal treatment started at day of randomisation, 14 days after s.c. cell transplantation.
Therefore s.c. xenografts models in SCID beige mice are not appropriate for mimicking human ADCC mediated effect with glycoengineered modified antibodies.

Substance | Ratio of the binding capacities to CD20 on Raji cells compared to rituximab [1] | Antitumor activity, later outcome [2] | Difference in antitumor activity between wt and glycoengineered versions [2] | Antitumor activity at time of control termination ([2]; 19 days after treatment initiation)
B-HH6-B-KV1: Type II anti-CD20 antibody (humanized B-Ly1 antibody) of Example 2; FIG. 2 legend calls it B-HH6-B-KV1 GE | reduces binding capacity compared to rituximab | – | – | –
B-HH6-B-KV1 wt: Type II anti-CD20 antibody, humanized B-Ly1 B-HH6-B-KV1 wildtype (non-glycoengineered) | – | most of Z138 tumor xenografts showed complete remission | No significant differences | all antibody tumors regressed
